Laboratory results from publication PMC7811009, “Oxytocin modulates local topography of human functional connectome in healthy men at rest” (Communications Biology, 2021).
Like-named read-outs stand apart in the source and are kept apart here.

Legend:
[1] = tested on: amygdala/parahippocampal gyrus and anterior cingulate; settings: same dose of intravenous oxytocin (10 IU), same cohort; cited from earlier work
From the text: Our second key finding was the observation that the regional effects of exogenous oxytocin, compared to placebo, vary as a function of the route/method of administration. Particularly striking was the observation that the intravenous administration of oxytocin induced widespread changes in regional functional connectivity across many areas potentially relevant to explaining the effects of intranasal oxytocin on human behaviour and which have been classically ascribed to direct nose-to-brain transport. One of these areas is the amygdala, where we found decreased betweenness-centrality after int ...

[2] = tested on: human functional connectome at rest; assay: Resting-state BOLD-fMRI: network edges (microscale), FDR and Network Based Statistics; format: in vivo
From the text: We used the CONN functional connectivity toolbox[97] to generate brain-wide functional connectivity matrices for each subject/session. […] The default atlas of the CONN toolbox includes 132 non-overlapping ROIs spanning cortical and subcortical areas and the cerebellum using a combination of the cortical and subcortical areas from the FSL Harvard-Oxford atlas and of the cerebellar areas of the Automatic Anatomical Labelling atlas (Supplementary data 1 for a detailed description). […] Finally, we normalized our correlation measures to z-scores using the Fisher’s r-z transform per subject/session.
We did so by examining treatment-related changes in mean connectivity and global efficiency of the whole-brain network (macroscale), graph properties of regional connectivity at the node level (mesoscale) and individual connections between pairs of nodes (microscale). These analyses were performed using repeated measures one-way analysis of variance, implemented in Matlab 2016. When a significant effect was found, we followed up with post-hoc paired t-tests between each pair of the four treatment conditions, using FDR correction for multiple testing.
Microscale. We performed two different analyses to investigate treatment-related changes on each individual edge of the connectivity matrices. […]

[3] = Plasma oxytocin concentration by radioimmunoassay after 40 IU intranasal (spray or nebuliser) or 10 IU intravenous oxytocin; format: in vivo, human; settings: for level at 0.95 h: male, human, 57 minutes post-administration (from last treatment offset), read-out: Concentration of plasmatic oxytocin
From the text: We employed a double-blind, placebo-controlled, triple-dummy, crossover design. Participants visited our centre for 4 experimental sessions spaced 8.90 days apart on average (SD = 5.65, range: 5–28 days). In each session, participants received treatment via all three administration routes, in one of two fixed sequences: either nebuliser/intravenous infusion/standard nasal spray, or standard nasal spray/intravenous infusion/nebuliser, according to the treatment administration scheme presented in Fig. 8 (upper panel). In three out of four sessions only one route of administration contained the active drug; in the fourth session, all routes delivered placebo or saline. Participants were randomly allocated to a treatment order (i.e. a specific plan regarding which route delivered the active drug in each experimental session) that was determined using a Latin square design. Unbeknown to the participants, the first treatment administration method in each session always contained placebo (see Fig. 8, upper panel), while intranasal (spray or nebuliser) oxytocin was only delivered with the third treatment administration. This protocol maintained double-blinding while avoiding the potential washing-out of intranasally deposited oxytocin (as might have been the case if oxytocin had been administered at the first treatment administration point and placebo at the third administration point). All sessions were conducted during the morning to minimise potential circadian variability in resting brain activity[79] or oxytocin levels.
For the intranasal administrations, participants self-administered a nominal dose of 40 IU oxytocin (Syntocinon; 40 IU/ml; Novartis, Basel, Switzerland), one of the highest clinically applicable doses[81] that would insure that lack of effects on the brain are unlikely to result from under-dosing. We have shown that 40 IU delivered with a standard nasal spray induce robust rCBF changes in two different cohorts of healthy men using between-[12] and within-subjects[11] designs. Work from others have also reported this dose to modulate resting functional connectivity[19],[82]. For the intranasal administration, we used specially manufactured placebo that contained the same excipients as Syntocinon except for oxytocin. Participants self-administered intranasal oxytocin or placebo with the nasal spray or nebuliser following under the supervision of the lead experimenter who ensured the correct application of the devices. Additionally, all participants had been trained during the screening visit in the correct administration procedures.
Participants followed our standard in-house protocol that we have used consistently across all of our studies and is consistent with the guidelines outlined by Guastella et al. (2013)[83]. […] Participants blocked opposite nostril while administering each puff, and each puff was followed by an immediate, brief, sharp, snort.
Participants self-administered 40 IU oxytocin (Syntocinon) or placebo, by operating the SINUS nebulizer for 3 min in each nostril (6 min in total), according to instructions. The correct application of the device was confirmed by determining gravimetrically the administered volume. Participants were instructed to breathe using only their mouth and to keep a constant breathing rate with their soft palate closed, to minimize delivery to the lungs. Previous studies using this nebuliser[34] have shown up to 9.0% (±1.9%) of the total administered dose to be delivered to the olfactory region, 15.7% (±2.4%) to the upper nose.
For the intravenous administration, we delivered 10 IU oxytocin (Syntocinon injection formulation, 10 IU/ml, Alliance, UK) or saline via slow infusion over 10 min (1IU/min). A 50-ml syringe was loaded with either 32 ml of 0.9% sodium chloride (placebo) or 30 ml of 0.9% sodium chloride with […] of Syntocinon (10 IU/ml). […]

For CC[C@H](C)[C@@H]1NC(=O)[C@H](Cc2ccc(O)cc2)NC(=O)[C@@H](N)CSSC[C@@H](C(=O)N2CCC[C@H]2C(=O)N[C@@H](CC(C)C)C(=O)NCC(N)=O)NC(=O)[C@H](CC(N)=O)NC(=O)[C@H](CCC(N)=O)NC1=O [oxytocin], the “Effect on rCBF” value [1] is listed as “decreases rCBF in the amygdala/parahippocampal gyrus and in the anterior cingulate”, the “Connectivity of individual edges across the four treatment conditions” value ([2]; FDR correction for the number of edges) is listed as “did not find any individual edge where the four treatment conditions differed in connectivity” and the “Connectivity of subnetworks across the four treatment conditions” value ([2]; NBS, irrespective of the primary threshold used) is listed as “did not identify any subnetwork where the four treatment conditions differed on connectivity”. The “Plasmatic oxytocin concentrations at post-administration, intravenous versus other conditions” value ([3]; 57 min post-administration, all pTukey < 0.010) was “higher in the intravenous condition than in all the other three treatment conditions”, the “Plasma oxytocin concentrations, spray versus nebuliser” value ([3]; 57 min post-administration, pTukey = 1.000) was “did not differ” and the “Plasma oxytocin concentration at 57 min post-administration compared to baseline” value ([3]; Intranasal (spray, nebuliser) and intravenous administrations, all pTukey < 0.010) was “increased plasma oxytocin concentration”. The “Concentration of plasmatic oxytocin” value ([3]; Nebuliser (40 IU intranasal, PARI SINUS nebuliser), 57 minutes post-administration, plasma, radioimmunoassay after extraction, mean, n = 16 healthy men) was 7.207 pg/mL, the level at 0.95 h ([3]; inhaled or intranasal, Spray (40 IU intranasal, standard nasal spray), plasma, radioimmunoassay after extraction, mean, n = 16 healthy men) was 7.03 pg/mL and the level at 0.95 h ([3]; Intravenous (10 IU infusion over 10 min, 1IU/min), plasma, radioimmunoassay after extraction, mean, n = 16 healthy men) was 16.4 pg/mL.
